Data from ChEMBL document CHEMBL1134961, “[(125)I]-N-[(3-azido-5-iodo)benzyl]dantrolene and [(125)I]-N-[[3-iodo-5-(3-trifluoromethyl-3H-diazirin-3-yl)]benzyl]dantrolene: photoaffinity probes specific for the physiological Ca(2+) release from sarcoplasmic reticulum of skeletal muscle” (Bioorg Med Chem Lett, 2002).
Activity calls are given as the source filed them. The rule behind the calls is not given here.

Molecular target: Ryanodine receptor 1 (Mus musculus) (UniProt E9PZQ0)
Test: Selective inhibition of Ryanodine receptor 1 mediated physiological [Ca2+] release (PCR) from sarcoplasmic reticulum against calcium-induced Ca2+ release (CICR)
Type: functional

Chain of Ryanodine receptor 1 (Mus musculus) (E9PZQ0 whole entry): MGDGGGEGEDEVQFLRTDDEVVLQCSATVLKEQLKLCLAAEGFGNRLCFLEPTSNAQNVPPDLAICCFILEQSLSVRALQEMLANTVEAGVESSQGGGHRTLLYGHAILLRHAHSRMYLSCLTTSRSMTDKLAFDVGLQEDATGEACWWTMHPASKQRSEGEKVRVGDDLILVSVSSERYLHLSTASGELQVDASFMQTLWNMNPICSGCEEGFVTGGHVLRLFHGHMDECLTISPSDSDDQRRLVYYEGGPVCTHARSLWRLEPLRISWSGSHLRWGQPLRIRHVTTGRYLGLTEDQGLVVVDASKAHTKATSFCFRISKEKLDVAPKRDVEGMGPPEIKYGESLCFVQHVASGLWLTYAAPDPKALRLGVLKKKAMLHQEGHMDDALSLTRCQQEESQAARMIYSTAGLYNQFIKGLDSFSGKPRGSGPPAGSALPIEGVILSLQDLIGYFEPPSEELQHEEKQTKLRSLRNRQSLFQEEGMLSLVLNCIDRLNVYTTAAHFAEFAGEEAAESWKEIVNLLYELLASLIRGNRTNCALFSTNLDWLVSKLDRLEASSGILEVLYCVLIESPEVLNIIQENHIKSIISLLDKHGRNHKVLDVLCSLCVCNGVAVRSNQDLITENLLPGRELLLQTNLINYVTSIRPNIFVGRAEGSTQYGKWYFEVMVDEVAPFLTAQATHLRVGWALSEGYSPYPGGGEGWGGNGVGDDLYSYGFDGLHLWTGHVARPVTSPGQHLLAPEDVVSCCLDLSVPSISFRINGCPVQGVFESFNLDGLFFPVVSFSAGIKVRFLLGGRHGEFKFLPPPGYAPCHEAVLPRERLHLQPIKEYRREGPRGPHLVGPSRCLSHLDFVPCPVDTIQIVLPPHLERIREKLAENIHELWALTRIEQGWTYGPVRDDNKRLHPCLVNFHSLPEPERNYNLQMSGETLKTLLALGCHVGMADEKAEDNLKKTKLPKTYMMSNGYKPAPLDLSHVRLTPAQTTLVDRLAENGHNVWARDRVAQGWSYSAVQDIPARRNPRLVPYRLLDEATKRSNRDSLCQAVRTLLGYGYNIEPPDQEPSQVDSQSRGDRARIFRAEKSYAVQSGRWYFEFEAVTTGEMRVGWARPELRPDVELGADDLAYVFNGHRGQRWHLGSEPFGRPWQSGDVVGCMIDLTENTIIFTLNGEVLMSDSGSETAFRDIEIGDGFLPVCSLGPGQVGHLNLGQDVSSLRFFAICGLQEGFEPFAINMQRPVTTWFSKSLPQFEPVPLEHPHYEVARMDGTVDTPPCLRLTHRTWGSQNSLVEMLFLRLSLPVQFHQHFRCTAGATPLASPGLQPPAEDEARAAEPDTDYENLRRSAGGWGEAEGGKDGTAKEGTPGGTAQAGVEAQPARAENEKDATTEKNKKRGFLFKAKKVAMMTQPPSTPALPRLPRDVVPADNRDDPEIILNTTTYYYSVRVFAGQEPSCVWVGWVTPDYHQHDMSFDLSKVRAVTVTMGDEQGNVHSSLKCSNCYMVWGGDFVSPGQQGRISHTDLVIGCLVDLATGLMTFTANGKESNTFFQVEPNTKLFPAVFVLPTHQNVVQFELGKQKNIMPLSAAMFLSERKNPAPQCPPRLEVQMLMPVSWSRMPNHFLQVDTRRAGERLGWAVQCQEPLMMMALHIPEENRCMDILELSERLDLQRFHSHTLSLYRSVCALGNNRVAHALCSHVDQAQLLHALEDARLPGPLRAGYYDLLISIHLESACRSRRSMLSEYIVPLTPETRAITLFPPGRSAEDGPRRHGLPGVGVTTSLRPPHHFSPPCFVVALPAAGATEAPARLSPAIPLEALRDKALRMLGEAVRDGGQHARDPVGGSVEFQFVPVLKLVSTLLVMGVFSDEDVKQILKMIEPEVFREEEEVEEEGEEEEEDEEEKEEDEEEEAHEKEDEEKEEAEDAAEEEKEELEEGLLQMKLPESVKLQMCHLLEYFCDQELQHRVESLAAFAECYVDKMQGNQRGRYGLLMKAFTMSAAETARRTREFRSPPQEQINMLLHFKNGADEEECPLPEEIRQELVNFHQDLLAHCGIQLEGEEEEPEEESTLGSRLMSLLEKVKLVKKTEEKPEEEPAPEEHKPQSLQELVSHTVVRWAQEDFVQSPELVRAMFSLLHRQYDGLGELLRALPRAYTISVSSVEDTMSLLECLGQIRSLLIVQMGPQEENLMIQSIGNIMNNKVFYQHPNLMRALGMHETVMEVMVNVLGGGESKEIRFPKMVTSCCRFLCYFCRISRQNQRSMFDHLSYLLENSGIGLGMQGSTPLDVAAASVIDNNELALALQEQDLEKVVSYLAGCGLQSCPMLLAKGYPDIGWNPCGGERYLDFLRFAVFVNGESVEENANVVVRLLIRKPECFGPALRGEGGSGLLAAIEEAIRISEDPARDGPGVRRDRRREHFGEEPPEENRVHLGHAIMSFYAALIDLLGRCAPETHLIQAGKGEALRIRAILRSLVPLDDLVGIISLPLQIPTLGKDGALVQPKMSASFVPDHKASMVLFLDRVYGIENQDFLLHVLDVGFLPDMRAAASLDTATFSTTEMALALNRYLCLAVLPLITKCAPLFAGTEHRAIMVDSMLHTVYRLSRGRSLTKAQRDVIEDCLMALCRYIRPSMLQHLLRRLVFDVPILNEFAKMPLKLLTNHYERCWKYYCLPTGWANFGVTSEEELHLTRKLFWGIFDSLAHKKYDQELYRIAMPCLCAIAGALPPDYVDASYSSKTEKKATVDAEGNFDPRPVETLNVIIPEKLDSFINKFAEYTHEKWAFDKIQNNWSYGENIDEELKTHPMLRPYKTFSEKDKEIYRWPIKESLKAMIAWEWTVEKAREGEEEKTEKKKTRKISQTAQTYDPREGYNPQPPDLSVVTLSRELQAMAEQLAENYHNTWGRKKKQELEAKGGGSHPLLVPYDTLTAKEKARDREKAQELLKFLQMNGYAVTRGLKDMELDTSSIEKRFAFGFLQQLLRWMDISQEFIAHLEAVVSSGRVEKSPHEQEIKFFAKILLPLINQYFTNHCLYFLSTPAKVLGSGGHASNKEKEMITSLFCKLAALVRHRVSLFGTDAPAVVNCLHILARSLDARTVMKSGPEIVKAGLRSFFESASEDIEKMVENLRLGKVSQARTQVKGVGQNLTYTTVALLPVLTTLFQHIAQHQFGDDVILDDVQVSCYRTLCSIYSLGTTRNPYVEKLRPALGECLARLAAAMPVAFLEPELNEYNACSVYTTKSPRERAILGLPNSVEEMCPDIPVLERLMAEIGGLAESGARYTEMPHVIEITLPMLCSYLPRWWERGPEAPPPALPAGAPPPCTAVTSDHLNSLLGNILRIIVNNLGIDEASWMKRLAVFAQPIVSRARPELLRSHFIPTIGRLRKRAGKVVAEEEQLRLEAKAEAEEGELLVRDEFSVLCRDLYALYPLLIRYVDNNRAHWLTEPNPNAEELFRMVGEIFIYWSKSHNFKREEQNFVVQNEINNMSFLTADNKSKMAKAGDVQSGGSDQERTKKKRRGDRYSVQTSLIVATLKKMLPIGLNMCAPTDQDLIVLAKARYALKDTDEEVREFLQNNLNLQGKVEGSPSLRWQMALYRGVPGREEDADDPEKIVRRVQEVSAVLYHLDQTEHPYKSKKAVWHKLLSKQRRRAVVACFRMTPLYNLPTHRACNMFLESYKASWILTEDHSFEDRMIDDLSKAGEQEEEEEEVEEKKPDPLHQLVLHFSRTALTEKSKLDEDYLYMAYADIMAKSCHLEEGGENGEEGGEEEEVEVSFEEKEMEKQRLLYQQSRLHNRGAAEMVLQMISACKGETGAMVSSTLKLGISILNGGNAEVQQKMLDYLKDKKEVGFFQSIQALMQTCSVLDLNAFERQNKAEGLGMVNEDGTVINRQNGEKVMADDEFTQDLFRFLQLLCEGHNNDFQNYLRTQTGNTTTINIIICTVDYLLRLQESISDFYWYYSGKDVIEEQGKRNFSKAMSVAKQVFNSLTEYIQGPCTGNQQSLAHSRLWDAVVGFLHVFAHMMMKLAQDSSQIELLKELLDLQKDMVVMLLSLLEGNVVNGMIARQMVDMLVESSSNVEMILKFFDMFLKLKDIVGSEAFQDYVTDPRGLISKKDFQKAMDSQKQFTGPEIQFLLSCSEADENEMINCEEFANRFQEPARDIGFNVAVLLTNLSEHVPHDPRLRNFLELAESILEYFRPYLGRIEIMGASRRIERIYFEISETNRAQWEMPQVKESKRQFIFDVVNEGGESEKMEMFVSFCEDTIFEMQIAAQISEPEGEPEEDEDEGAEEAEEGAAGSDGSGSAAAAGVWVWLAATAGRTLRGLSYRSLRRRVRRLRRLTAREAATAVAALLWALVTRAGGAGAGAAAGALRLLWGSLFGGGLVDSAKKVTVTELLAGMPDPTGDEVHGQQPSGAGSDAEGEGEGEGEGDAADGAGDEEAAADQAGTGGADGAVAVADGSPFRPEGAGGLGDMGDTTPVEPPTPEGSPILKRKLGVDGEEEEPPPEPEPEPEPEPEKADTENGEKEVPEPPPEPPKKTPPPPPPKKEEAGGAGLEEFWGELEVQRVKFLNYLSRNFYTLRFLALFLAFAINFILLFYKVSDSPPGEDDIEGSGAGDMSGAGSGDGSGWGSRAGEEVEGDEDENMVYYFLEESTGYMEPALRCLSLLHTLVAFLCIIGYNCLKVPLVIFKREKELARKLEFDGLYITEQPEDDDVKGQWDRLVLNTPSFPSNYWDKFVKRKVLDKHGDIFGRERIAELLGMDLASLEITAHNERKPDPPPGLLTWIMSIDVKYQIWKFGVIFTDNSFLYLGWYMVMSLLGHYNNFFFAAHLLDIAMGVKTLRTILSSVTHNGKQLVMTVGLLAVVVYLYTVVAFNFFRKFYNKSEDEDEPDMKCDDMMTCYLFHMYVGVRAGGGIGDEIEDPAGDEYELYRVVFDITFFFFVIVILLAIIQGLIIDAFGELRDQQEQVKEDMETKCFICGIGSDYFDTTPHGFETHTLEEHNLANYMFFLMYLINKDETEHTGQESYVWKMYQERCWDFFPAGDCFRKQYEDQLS

| Activity | SMILES |
| --- | --- |
| Active | O=C1CN(/N=C/c2ccc(-c3ccc([N+](=O)[O-])cc3)o2)C(=O)N1Cc1cc(I)cc(C2(C(F)(F)F)N=N2)c1 |
| Active | [N-]=[N+]=Nc1cc(I)cc(CN2C(=O)CN(/N=C/c3ccc(-c4ccc([N+](=O)[O-])cc4)o3)C2=O)c1 |
